Patent US20240343681A1, “MOLECULES HAVING PESTICIDAL UTILITY AND INTERMEDIATES AND PROCESSES RELATED THERETO” (priority 2021, published 2024)

Each compound was assayed on Beet Armyworm (Spodoptera exigua, LAPHEG) second instar larva (assay: Bioassay on beet armyworm (BAW), 128-well diet tray assay). Details: 50 μg/cm^2 on artificial diet, 25° C., five days.
Assay type: in vivo
Experimental: Example A: Bioassays on Beet Armyworm (Spodoptera exigua, LAPHEG) (“BAW”) and Cabbage Looper (Trichoplusia ni, TRIPNI) (“CL”)
Bioassays on BAW were conducted using a 128-well diet tray assay. One second instar BAW larva was placed in each well (8 wells total) of the diet tray that had been previously filled with 1 mL of artificial diet to which 50 μg/cm^2 of the test molecule (dissolved in 50 μL of 90:10 acetone-water mixture) had been applied (to each of eight wells) and then allowed to dry. Trays were covered with a clear self-adhesive cover, vented to allow gas exchange, and held at 25° C., 14:10 light-dark for five days. Percent mortality was recorded for the larvae in each well; activity in the eight wells was then averaged.

SMILES | activity against BAW (percent mortality, averaged over eight wells)
Cc1ccccc1C(=O)Nc1cc(NC(=O)[C@H]2[C@H](c3cc(Cl)cc(Cl)c3)C2(Cl)Cl)ccc1Cl (racemic) [F73, trans-rac-N-(2-Chloro-5-(2,2-dichloro-3-(3,5-dichlorophenyl)cyclopropane-1-carboxamido)phenyl)-2-methylbenzamide] | exhibited activity
Cc1cc(C)cc(C(=O)Nc2cc(NC(=O)[C@H]3[C@H](c4cc(Cl)cc(Cl)c4)C3(Cl)Cl)ccc2Cl)c1 (racemic) [F76, trans-rac-N-(2-Chloro-5-(2,2-dichloro-3-(3,5-dichlorophenyl)cyclopropane-1-carboxamido)phenyl)-3,5-dimethylbenzamide] | exhibited activity
O=C(Nc1cc(NC(=O)[C@H]2[C@H](c3cc(Cl)cc(Cl)c3)C2(Cl)Cl)ccc1Cl)c1cccc(C(F)(F)F)c1 (racemic) [F81, trans-rac-N-(2-Chloro-5-(2,2-dichloro-3-(3,5-dichlorophenyl)cyclopropane-1-carboxamido)phenyl)-3-(trifluoromethyl)benzamide] | exhibited activity
O=C(Nc1cc(NC(=O)[C@H]2[C@H](c3cc(Cl)cc(Cl)c3)C2(Cl)Cl)ccc1Cl)c1ccccc1 (racemic) [F87, trans-rac-N-(2-Chloro-5-(2,2-dichloro-3-(3,5-dichlorophenyl)cyclopropane-1-carboxamido)phenyl)benzamide] | exhibited activity
O=C(Nc1cc(NC(=O)[C@H]2[C@H](c3cc(Cl)cc(Cl)c3)C2(Cl)Cl)ccc1Cl)c1cccc([N+](=O)[O-])c1 (racemic) [F88, trans-rac-N-(2-chloro-5-(2,2-dichloro-3-(3,5-dichlorophenyl)cyclopropane-1-carboxamido)phenyl)-3-nitrobenzamide] | exhibited activity
O=C(Nc1cc(NC(=O)[C@H]2[C@H](c3cc(Cl)cc(Cl)c3)C2(Cl)Cl)ccc1Cl)c1ccc([N+](=O)[O-])cc1 (racemic) [F89, trans-rac-N-(2-Chloro-5-(2,2-dichloro-3-(3,5-dichlorophenyl)cyclopropane-1-carboxamido)phenyl)-4-nitrobenzamide] | exhibited activity
Cc1cc([N+](=O)[O-])ccc1C(=O)Nc1cc(NC(=O)[C@H]2[C@H](c3cc(Cl)cc(Cl)c3)C2(Cl)Cl)ccc1Cl (racemic) [F90, trans-rac-N-(2-Chloro-5-(2,2-dichloro-3-(3,5-dichlorophenyl)cyclopropane-1-carboxamido)phenyl)-2-methyl-4-nitrobenzamide] | exhibited activity
C#Cc1ccc(C(=O)Nc2cc(NC(=O)[C@H]3[C@H](c4cc(Cl)cc(Cl)c4)C3(Cl)Cl)ccc2Cl)cc1 (racemic) [F91, trans-rac-N-(2-Chloro-5-(2,2-dichloro-3-(3,5-dichlorophenyl)cyclopropane-1-carboxamido)phenyl)-4-ethynylbenzamide] | exhibited activity
CC(CC(=O)N(C)c1cc(NC(=O)C2C(c3cc(Cl)cc(Cl)c3)C2(Cl)Cl)ccc1Cl)C(F)(F)F (racemic) [F92, trans-rac-2,2-dichloro-N-(4-chloro-3-(4,4,4-trifluoro-N,3-dimethylbutanamido)phenyl)-3-(3,5-dichlorophenyl)cyclopropane-1-carboxamide] | exhibited activity
Cc1cc(C#N)ccc1C(=O)N(C)c1cc(NC(=O)[C@H]2[C@H](c3cc(Cl)cc(Cl)c3)C2(Cl)Cl)ccc1Cl (racemic) [F93, trans-rac-N-(2-Chloro-5-(2,2-dichloro-3-(3,5-dichlorophenyl)cyclopropane-1-carboxamido)phenyl)-4-cyano-N,2-dimethylbenzamide] | exhibited activity
CN(C(=O)c1cc(F)cc(F)c1)c1cc(NC(=O)[C@H]2[C@H](c3cc(Cl)cc(Cl)c3)C2(Cl)Cl)ccc1Cl (racemic) [F94, trans-rac-N-(2-Chloro-5-(2,2-dichloro-3-(3,5-dichlorophenyl)cyclopropane-1-carboxamido)phenyl)-3,5-difluoro-N-methylbenzamide] | exhibited activity
O=C(COCC(F)(F)F)Nc1ccc(C(=O)Nc2cc(NC(=O)[C@H]3[C@H](c4ccc(F)c(C(F)(F)F)c4)C3(Cl)Cl)ccc2Cl)c(F)c1 (racemic) [F119, trans-rac-N-(2-Chloro-5-(2,2-dichloro-3-(4-fluoro-3-(trifluoromethyl)phenyl)cyclopropane-1-carboxamido)phenyl)-2-fluoro-4-(2-(2,2,2-trifluoroethoxy)acetamido)benzamide] | exhibited activity
O=C(CCC(F)(F)F)Nc1ccc(C(=O)Nc2cc(NC(=O)[C@H]3[C@H](c4ccc(F)c(C(F)(F)F)c4)C3(Cl)Cl)ccc2Cl)c(F)c1 (racemic) [F120, trans-rac-N-(2-Chloro-5-(2,2-dichloro-3-(4-fluoro-3-(trifluoromethyl)phenyl)cyclopropane-1-carboxamido)phenyl)-2-fluoro-4-(4,4,4-trifluorobutanamido)benzamide] | exhibited activity
O=C(CSC(F)(F)F)Nc1ccc(C(=O)Nc2cc(NC(=O)[C@H]3[C@H](c4ccc(F)c(C(F)(F)F)c4)C3(Cl)Cl)ccc2Cl)c(F)c1 (racemic) [F121, trans-rac-N-(2-Chloro-5-(2,2-dichloro-3-(4-fluoro-3-(trifluoromethyl)phenyl)cyclopropane-1-carboxamido)phenyl)-2-fluoro-4-(2-((trifluoromethyl)thio)acetamido)benzamide] | exhibited activity
CCOC(C)C(=O)Nc1c(F)ccc(NC(=O)[C@H]2[C@H](c3cc(Cl)c(Cl)c(Cl)c3)C2(Cl)Cl)c1F (stereo partly drawn) [F12, (1R,3R)-2,2-Dichloro-N-(3-(2-ethoxypropanamido)-2,4-difluorophenyl)-3-(3,4,5-trichlorophenyl)cyclopropane-1-carboxamide] | exhibited activity
O=C(Nc1ccc(F)c(NC(=O)C(F)(F)C(F)(F)C(F)(F)F)c1F)[C@H]1[C@H](c2cc(Cl)c(Cl)c(Cl)c2)C1(Cl)Cl [F13, (1R,3R)-2,2-Dichloro-N-(2,4-difluoro-3-(2,2,3,3,4,4,4-heptafluorobutanamido)phenyl)-3-(3,4,5-trichlorophenyl)cyclopropane-1-carboxamide] | exhibited activity
Cc1cc(C#N)ccc1C(=O)Nc1cc(NC(=O)[C@H]2[C@H](c3ccc(F)c(C(F)(F)F)c3)C2(Cl)Cl)ccc1Cl [F97, N-(2-Chloro-5-((1R,3R)-2,2-dichloro-3-(4-fluoro-3-(trifluoromethyl)phenyl)cyclopropane-1-carboxamido)phenyl)-4-cyano-2-methylbenzamide] | exhibited activity
Cc1cc(C#N)ccc1C(=O)Nc1cc(NC(=O)[C@H]2[C@H](c3ccc(F)c(Br)c3)C2(Cl)Cl)ccc1Cl [F98, N-(5-((1R,3R)-3-(3-Bromo-4-fluorophenyl)-2,2-dichlorocyclopropane-1-carboxamido)-2-chlorophenyl)-4-cyano-2-methylbenzamide] | exhibited activity
